Test results published in patent US7074807B2, “Compositions and methods for inducing cell death” (Georgetown University, priority 1998, dated 2006).

Legend:
[1] = system: LNCaP cells; assay: Annexin V apoptosis in prostate cancer cells (5% BCS); type: cell-based, human
Method: (§1) Cells were grown overnight in medium containing 10% BCS in T-25 flasks, switched to medium containing 5% BCS and treated with tempo. Following treatment, cells were washed, trypsinized, and resuspended in […] of 1× binding buffer as described before. […] (9A1–9A3): Cytograms of untreated (9A1); 0.1% ethanol-treated (24 hr) (9A2); and tempo-treated DU145 cells (2.5 mM, 24 hr) (9A3). […] (9B1–9B2), (9C1–9C2), (9D1–9D2): apoptosis (9B1, 9C1, 9D1) and necrosis (9B2, 9C2, […]) in cells treated with tempo (B, 2.5 mM; C, 24 hr; D, doses and times as indicated). Values shown are mean q S.D. of triplicate determination per point in each treatment category.
(§2) To investigate tempo's effect on prostate cancer cells, human androgen-independent prostate cancer-derived cell lines (DU145 and PC3) were grown to near confluence in 75 cm^2-tissue flasks in Improved Minimum Essential Medium (IMEM) (Cellgro) containing 10% bovine calf serum (BCS) supplemented with 2 mM L-glutamine and 200 IU/ml penicillin and streptomycin mixture in a humidified atmosphere of 5% CO2:95% air at 37° C. Human androgen-dependent prostate cancer-derived cell line (LNCaP) was cultured in RPMI 1640 medium containing 10% BCS and 2 mM L-glutamine. Cells were trypsinized and seeded in equal numbers overnight in 150 mm^2 tissue culture dishes (two dishes per flask) or 25 cm^2 flasks (1×10^6 cells per flask). Cells were treated in medium containing 5% BCS with desired concentration of tempo for various times. Tempo was dissolved in ethanol (0.1%) before use. Control cultures were treated with ethanol (0.1%) for various times. Following treatment, cells were washed 3 times with PBS. […] In LNCaP cells, a relatively higher level of apoptosis was observed (1 mM tempo, 24 hr, approximately 12-fold; 5 mM, 4 hr, approximately 15-fold) (FIGS. 9A1, 9A2, 9A3, 9B1, 9B2, 9C1, 9C2, 9D1, 9D2).

[2] = system: DU145 cells; assay: as above; type: cell-based, human; details: 2.5 mM, 24 hr
Method: as §1, §2

[3] = system: PC-3 cells; assay: as above; type: cell-based, human; details: 2.5 mM, 24 hr
Method: as §1, §2

[4] = system: LNCaP cells; assay: Light and transmission electron microscopy of LNCaP cells; type: cell-based, human
Method: LNCaP cells ([…]) were seeded in 25 cm2 tissue culture flasks in RPMI medium containing 10% BCS overnight, followed by change to RPMI medium containing 5% BCS stimulation with 0.1% ethanol (control, 11A1, 11B1) or tempo (2.5 mM, 11A2, 11B2) for indicated times.
12A1, untreated, 4,000×; 12A2, a portion of the cell shown in 12A1, 20,000×; 12B1, 0.1% ethanol, 24 hr, 4,000×; 12B2, a portion of the cell shown in 12B1, 20,000×; 12C1, 5 mM tempo, 24 hr, 4,000×; 12C2, a portion of the cell shown in 12C1, […]; 12D, 5 mM tempo, 24 hr, a portion of another cell, 20,000×. M, mitrochondria; G, golgi apparatus; RER, rough endoplasmic reticulum; Cy, cytoplasm; N, nucleus; Arrow in panel C2 indicates swelling in the nuclear membrane.
LNCaP cells were treated with tempo as described in legend to FIG. 2. Following treatment, monolayer cells were washed three times with PBS, and fixed in 2.5% glutaraldehyde/3% paraformaldehyde in PBS. After fixation, the cell monolayer was washed in PBS. The cells were collected by gentle scraping using a rubber policeman, and centrifuged. The pellet was embedded in 1% agarose to facilitate handling. Post-fixation was performed in 1% osmium tetroxide in distilled water for 1 hr, followed by washing three times in distilled water, enbloc staining with 2% uranyl acetate for 30 min in dark, and washing three times in distilled water. […]

[5] = Tolerated dose in mice

Question: For `CC1(C)CCCC(C)(C)N1[O]` [tempo, 2,2,6,6-tetramethylpiperidine-N-oxyl], which “level of apoptosis (increase)” value ([1]; 1 mM, 24 hr) is on record?
Answer: Its value is “approximately 12 fold”.

Question: What about the “level of apoptosis (increase)” value ([1]; 5 mM, 4 hr) of the same compound?
Answer: Its value is “approximately 15 fold”.

Question: And the “increase in the number of apoptotic cells” value [2]?
Answer: Its value is “approximately 3.4 fold”.

Question: And the “increase in the number of apoptotic cells” value [3]?
Answer: The value was roughly 6.7 fold.

Question: And the “cell morphology at the light microscopic level” value ([4]; 2.5 mM)?
Answer: Its value is “distinct change in cell morphology from spindle shaped, highly refractile appearance to a more flattened appearance”.

Question: And the “cells with pronounced vacuolation throughout the cytoplasm” value ([4]; electron microscopy, 5 mM, 24 hr)?
Answer: The value was “more than 90%”.

Question: What about the intratumoral tolerance [5] of the same compound?
Answer: The intratumoral tolerance was “over 200 mg/kg”.
